Data from ChEMBL document CHEMBL2010711, “Synthesis and comparative evaluation of 4-oxa- and 4-aza-podophyllotoxins as antiproliferative microtubule destabilizing agents” (Bioorg Med Chem Lett, 2012).
Calls of active or inactive are those of the source.

Legend:
CCRF-CEM = assay: Cytotoxicity against human CCRF-CEM cells after 48 hrs by trypan blue dye exclusion assay; type: functional
HL-60(TB) = assay: Cytotoxicity against human HL-60(TB) cells after 48 hrs by trypan blue dye exclusion assay; type: functional; details: HL-60, 48 h
MOLT-4 = assay: Cytotoxicity against human MOLT4 cells after 48 hrs by trypan blue dye exclusion assay; type: functional; details: MOLT-4, 48 h
RPMI-8226 = assay: Cytotoxicity against human RPMI8226 cells after 48 hrs by trypan blue dye exclusion assay; type: functional; details: RPMI-8226, 48 h
SR = assay: Cytotoxicity against human SR cells after 48 hrs by trypan blue dye exclusion assay; type: functional
A549 = assay: Cytotoxicity against human A549 cells after 48 hrs by trypan blue dye exclusion assay; type: functional; details: A549, 48 h
EKVX = assay: Cytotoxicity against human EKVX cells after 48 hrs by trypan blue dye exclusion assay; type: functional
HOP-92 = assay: Cytotoxicity against human HOP92 cells after 48 hrs by trypan blue dye exclusion assay; type: functional; details: HOP-92, 48 h
NCI-H226 = assay: Cytotoxicity against human NCI-H226 cells after 48 hrs by trypan blue dye exclusion assay; type: functional; details: NCI-H226, 48 h
NCI-H23 = assay: Cytotoxicity against human NCI-H23 cells after 48 hrs by trypan blue dye exclusion assay; type: functional; details: NCI-H23, 48 h
NCI-H460 = assay: Cytotoxicity against human NCI-H460 cells after 48 hrs by trypan blue dye exclusion assay; type: functional; details: NCI-H460, 48 h
NCI-H522 = assay: Cytotoxicity against human NCI-H522 cells after 48 hrs by trypan blue dye exclusion assay; type: functional; details: NCI-H522, 48 h
COLO 205 = assay: Cytotoxicity against human COLO205 cells after 48 hrs by trypan blue dye exclusion assay; type: functional; details: COLO 205, 48 h
HCC 2998 = assay: Cytotoxicity against human HCC2998 cells after 48 hrs by trypan blue dye exclusion assay; type: functional; details: HCC 2998, 48 h
HCT-116 = assay: Cytotoxicity against human HCT116 cells after 48 hrs by trypan blue dye exclusion assay; type: functional; details: HCT-116, 48 h
HCT-15 = assay: Cytotoxicity against human HCT15 cells after 48 hrs by trypan blue dye exclusion assay; type: functional; details: HCT-15, 48 h
HT-29 = assay: Cytotoxicity against human HT-29 cells after 48 hrs by trypan blue dye exclusion assay; type: functional; details: HT-29, 48 h
KM12 = assay: Cytotoxicity against human KM12 cells after 48 hrs by trypan blue dye exclusion assay; type: functional; details: KM12, 48 h
SW-620 = assay: Cytotoxicity against human SW620 cells after 48 hrs by trypan blue dye exclusion assay; type: functional; details: SW-620, 48 h
SF-268 = assay: Cytotoxicity against human SF268 cells after 48 hrs by trypan blue dye exclusion assay; type: functional; details: SF-268, 48 h
SF-295 = assay: Cytotoxicity against human SF295 cells after 48 hrs by trypan blue dye exclusion assay; type: functional; details: SF-295, 48 h
SF-539 = assay: Cytotoxicity against human SF539 cells after 48 hrs by trypan blue dye exclusion assay; type: functional; details: SF-539, 48 h
SNB-19 = assay: Cytotoxicity against human SNB19 cells after 48 hrs by trypan blue dye exclusion assay; type: functional; details: SNB-19, 48 h
SNB-75 = assay: Cytotoxicity against human SNB75 cells after 48 hrs by trypan blue dye exclusion assay; type: functional; details: SNB-75, 48 h
U-251 = assay: Cytotoxicity against human U251 cells after 48 hrs by trypan blue dye exclusion assay; type: functional; details: U-251, 48 h
LOX IMVI = assay: Cytotoxicity against human LOXIMVI cells after 48 hrs by trypan blue dye exclusion assay; type: functional
Malme-3M = assay: Cytotoxicity against human MALME-3M cells after 48 hrs by trypan blue dye exclusion assay; type: functional
M14 = assay: Cytotoxicity against human M14 cells after 48 hrs by trypan blue dye exclusion assay; type: functional; details: M14, 48 h
MDA-MB-435 = assay: Cytotoxicity against human MDA-MB-435 cells after 48 hrs by trypan blue dye exclusion assay; type: functional; details: MDA-MB-435, 48 h
SK-MEL-2 = assay: Cytotoxicity against human SK-MEL-2 cells after 48 hrs by trypan blue dye exclusion assay; type: functional; details: SK-MEL-2, 48 h
SK-MEL-28 = assay: Cytotoxicity against human SK-MEL-28 cells after 48 hrs by trypan blue dye exclusion assay; type: functional; details: SK-MEL-28, 48 h
UACC-62 = assay: Cytotoxicity against human UACC62 cells after 48 hrs by trypan blue dye exclusion assay; type: functional; details: UACC-62, 48 h
IGROV-1 = assay: Cytotoxicity against human IGROV1 cells after 48 hrs by trypan blue dye exclusion assay; type: functional; details: IGROV-1, 48 h
OVCAR-3 = assay: Cytotoxicity against human OVCAR3 cells after 48 hrs by trypan blue dye exclusion assay; type: functional; details: OVCAR-3, 48 h
OVCAR-4 = assay: Cytotoxicity against human OVCAR4 cells after 48 hrs by trypan blue dye exclusion assay; type: functional; details: OVCAR-4, 48 h
OVCAR-5 = assay: Cytotoxicity against human OVCAR5 cells after 48 hrs by trypan blue dye exclusion assay; type: functional; details: OVCAR-5, 48 h
OVCAR-8 = assay: Cytotoxicity against human OVCAR8 cells after 48 hrs by trypan blue dye exclusion assay; type: functional; details: OVCAR-8, 48 h
NCI/ADR-RES = assay: Cytotoxicity against human NCI/ADR-RES cells after 48 hrs by trypan blue dye exclusion assay; type: functional
SK-OV-3 = assay: Cytotoxicity against human SKOV3 cells after 48 hrs by trypan blue dye exclusion assay; type: functional; details: SK-OV-3, 48 h
786-0 = assay: Cytotoxicity against human 786-0 cells after 48 hrs by trypan blue dye exclusion assay; type: functional; details: 786-0, 48 h
A498 = assay: Cytotoxicity against human A498 cells after 48 hrs by trypan blue dye exclusion assay; type: functional; details: A498, 48 h
ACHN = assay: Cytotoxicity against human ACHN cells after 48 hrs by trypan blue dye exclusion assay; type: functional
RXF 393 = assay: Cytotoxicity against human RXF393 cells after 48 hrs by trypan blue dye exclusion assay; type: functional; details: RXF 393, 48 h
SN12C = assay: Cytotoxicity against human SN12C cells after 48 hrs by trypan blue dye exclusion assay; type: functional
TK-10 = assay: Cytotoxicity against human TK10 cells after 48 hrs by trypan blue dye exclusion assay; type: functional; details: TK-10, 48 h
UO-31 = assay: Cytotoxicity against human UO31 cells after 48 hrs by trypan blue dye exclusion assay; type: functional; details: UO-31, 48 h
PC-3 = assay: Cytotoxicity against human PC3 cells after 48 hrs by trypan blue dye exclusion assay; type: functional; details: PC-3, 48 h
DU-145 = assay: Cytotoxicity against human DU145 cells after 48 hrs by trypan blue dye exclusion assay; type: functional; details: DU-145, 48 h
MCF7 = assay: Cytotoxicity against human MCF7 cells after 48 hrs by trypan blue dye exclusion assay; type: functional; details: MCF7, 48 h
MDA-MB-231 = assay: Cytotoxicity against human MDA-MB-231 cells after 48 hrs by trypan blue dye exclusion assay; type: functional; details: MDA-MB-231, 48 h
[1] = Cytotoxicity against human Hs 578T cells after 48 hrs by trypan blue dye exclusion assay; type: functional
BT-549 = assay: Cytotoxicity against human BT549 cells after 48 hrs by trypan blue dye exclusion assay; type: functional; details: BT-549, 48 h
T47D = assay: Cytotoxicity against human T47D cells after 48 hrs by trypan blue dye exclusion assay; type: functional
MDA-MB-468 = assay: Cytotoxicity against human MDA-MB-468 cells after 48 hrs by trypan blue dye exclusion assay; type: functional; details: MDA-MB-468, 48 h
Paracentrotus lividus [2] = assay: Antimitotic activity against Paracentrotus lividus embryo assessed as concentration required to cause 100% cleavage alteration after 2.5 to 6 hrs; type: functional
Paracentrotus lividus [3] = assay: Antimitotic activity against Paracentrotus lividus embryo assessed as concentration required to cause 100% cleavage arrest after 2.5 to 6 hrs; type: functional
Paracentrotus lividus [4] = assay: Microtubule destabilizing activity in Paracentrotus lividus embryo assessed as concentration required to cause 100% embryo spinning after 15 mins to 20 hrs; type: functional
Paracentrotus lividus [5] = assay: Antimitotic activity against Paracentrotus lividus embryo assessed as cleavage alteration at 2 fold less effective threshold concentration after 2.5 to 6 hrs; type: functional, organism-based
Paracentrotus lividus [6] = assay: Antimitotic activity against Paracentrotus lividus embryo assessed as cleavage arrest at 2 fold less effective threshold concentration after 2.5 to 6 hrs; type: functional, organism-based
Paracentrotus lividus [7] = assay: Microtubule destabilizing activity in Paracentrotus lividus embryo assessed as embryo spinning at 2 fold less effective threshold concentration after 15 mins to 20 hrs; type: functional, organism-based

Work on `COc1ccc2c(c1)OC1=C(C(=O)OC1)C2c1cc(OC)c(OC)c(OC)c1` (stereo not given) yielded a GI50 (CCRF-CEM) of 315 nM, a GI50 (HL-60(TB)) of 249 nM and a GI50 (MOLT-4) of 515 nM. It also gave a GI50 (RPMI-8226) of 816 nM, a GI50 (SR) of 242 nM and a GI50 (A549) of 707 nM. For the same compound, the GI50 (EKVX) was 1420 nM, the GI50 (HOP-92) was 496 nM and the GI50 (NCI-H226) was 47500 nM. For the same compound, the GI50 (NCI-H23) was 441 nM, the GI50 (NCI-H460) was 1270 nM and the GI50 (NCI-H522) was 378 nM. The GI50 (COLO 205) was 309 nM, the GI50 (HCC 2998) was 1350 nM and the GI50 (HCT-116) was 496 nM. It also gave a GI50 (HCT-15) of 508 nM, a GI50 (HT-29) of 323 nM and a GI50 (KM12) of 464 nM. The GI50 (SW-620) was 352 nM, the GI50 (SF-268) was 731 nM and the GI50 (SF-295) was 288 nM. For the same compound, the GI50 (SF-539) was 376 nM, the GI50 (SNB-19) was 553 nM and the GI50 (SNB-75) was 172 nM. For the same compound, the GI50 (U-251) was 731 nM, the GI50 (LOX IMVI) was 505 nM and the GI50 (Malme-3M) was 468 nM. For the same compound, the GI50 (M14) was 505 nM, the GI50 (MDA-MB-435) was 120 nM and the GI50 (SK-MEL-2) was 439 nM. The GI50 (SK-MEL-28) was 667 nM, the GI50 (UACC-62) was 568 nM and the GI50 (IGROV-1) was 1130 nM. It also gave a GI50 (OVCAR-3) of 332 nM, a GI50 (OVCAR-4) of 2650 nM and a GI50 (OVCAR-5) of 4680 nM. It also gave a GI50 (OVCAR-8) of 788 nM, a GI50 (NCI/ADR-RES) of 334 nM and a GI50 (SK-OV-3) of 368 nM. The GI50 (786-0) was 562 nM, the GI50 (A498) was 295 nM and the GI50 (ACHN) was 1630 nM. For the same compound, the GI50 (RXF 393) was 231 nM, the GI50 (SN12C) was 993 nM and the GI50 (TK-10) was > 100000 nM. It also gave a GI50 (UO-31) of 936 nM, a GI50 (PC-3) of 482 nM and a GI50 (DU-145) of 648 nM. The GI50 (MCF7) was 330 nM, the GI50 (MDA-MB-231) was 1740 nM and the GI50 [1] was 377 nM. The GI50 (BT-549) was 947 nM, the GI50 (T47D) was 489 nM and the GI50 (MDA-MB-468) was 232 nM. It also gave an EC (Paracentrotus lividus [2]) of 5 nM, an EC (Paracentrotus lividus [3]) of 50 nM and an EC (Paracentrotus lividus [4]) of 200 nM. For the same compound, the Activity (Paracentrotus lividus [5]) was “inactive”, the Activity (Paracentrotus lividus [6]) was “inactive” and the Activity (Paracentrotus lividus [7]) was “inactive”.
